In brackets after ≈: the same amount, converted by molar mass. Activity calls are given as the source filed them. No cut-off for these calls is given here.
Key:
Format in all cases: functional, cell-based
KB/VJ300 [1] = assay: Reversal of vincristine resistance in human KB/VJ300 cells
KB/VJ300 [2] = assay: Cytotoxicity against vincristine-resistant human KB/VJ300 cells after 72 hrs by alamar blue assay
HL-60 = assay: Induction of human HL60 cell differentiation assessed as morphological change at 0.05 to 25 ug/ml by phase-contrast microscopy
Homo sapiens = species: Homo sapiens; assay: Cytotoxicity against human KU-19-20 cells after 72 hrs by alamar blue assay
KB = assay: Cytotoxicity against vincristine-sensitive human KB cells after 72 hrs by alamar blue assay

Structure (SMILES) | Activity (KB/VJ300 [1]) | Activity (KB/VJ300 [2]) | Activity (HL-60) | Activity (Homo sapiens) | IC50 (KB) [µg/mL]
CC1(C)CC[C@]2(CO)CC[C@]3(C)C(=CC[C@@H]4[C@@]5(C)CC[C@H](O)C(C)(C)[C@@H]5CC[C@]43C)[C@@H]2C1 [ERYTHRODIOL] | inactive | Active | inactive | Active | 7 (≈ 15.8 µM)
C[C@H]1[C@H](C)CC[C@]2(CO)CC[C@]3(C)C(=CC[C@@H]4[C@@]5(C)CC[C@H](OC(=O)/C=C/c6ccc(O)c(O)c6)C(C)(C)[C@@H]5CC[C@]43C)[C@H]12 | inactive | – | inactive | – | > 10
C=C(C)[C@@H]1CC[C@]2(CO)CC[C@]3(C)[C@H](CC[C@@H]4[C@@]5(C)CC[C@H](O)C(C)(C)[C@@H]5CC[C@]43C)[C@@H]12 [BETULIN] | inactive | – | inactive | – | > 10
C=C(C)[C@@H]1CC[C@]2(CO)CC[C@]3(C)[C@H](CC[C@@H]4[C@@]5(C)CC[C@H](OC(=O)/C=C/c6ccc(O)c(O)c6)C(C)(C)[C@@H]5CC[C@]43C)[C@@H]12 | inactive | – | inactive | – | > 10
C=C(C)[C@@H]1CC[C@]2(CO)CC[C@]3(C)[C@H](CC[C@@H]4[C@@]5(C)C[C@@H](O)C(=O)C(C)(C)[C@@H]5CC[C@]43C)[C@H]12 [MAYTEFOLIN A] | inactive | – | inactive | – | > 10
CC1(C)CC[C@]2(CO)CC[C@]3(C)C(=CC[C@@H]4[C@@]5(C)CC[C@H](OC(=O)/C=C/c6ccc(O)c(O)c6)C(C)(C)[C@@H]5CC[C@]43C)[C@H]2C1 | inactive | – | inactive | – | > 10
